Measured values: patent publication US20250115583A1, “BICYCLIC INDAZOLE GLUCOCORTICOID RECEPTOR ANTAGONISTS” (Corcept Therapeutics Incorporated, priority 2021, published 2025)

Biological target: glucocorticoid receptor (Homo sapiens (Human), UniProt P04150)
Assay: HepG2 TAT assay: inhibition of dexamethasone-induced tyrosine aminotransferase (TAT) activity
Assay type: cell-based
Details: HepG2 cells, challenge of 100 nM dexamethasone, 18-24 hr; IC50 converted to Ki by Cheng and Prusoff equation
Method: Glucocorticoid mediated activation of TAT occurs by transactivation of glucocorticoid response elements in the TAT promoter by glucocorticoid receptor-agonist complex.
HepG2 cells were cultured using MEME media supplemented with 10% (v/v) foetal bovine serum; 2 mM L-glutamine and 1% (v/v) NEAA at 37° C., 5%/95% (v/v) CO2/air.
Compounds were serially half log diluted in 100% (v/v) dimethylsulphoxide from a 10 mM stock.
HepG2 cells were then lysed with 30 μl of cell lysis buffer containing a protease inhibitor cocktail for 15 minutes at 4° C. […] After 2 hours incubation at 37° C. the reaction was terminated by the addition of 15 μl of 10M aqueous potassium hydroxide solution, and the plates incubated for a further 30 minutes at 37° C.
[compound] and fitting the data to a 4 parameter logistic equation.

Sequence of glucocorticoid receptor (P04150 whole entry): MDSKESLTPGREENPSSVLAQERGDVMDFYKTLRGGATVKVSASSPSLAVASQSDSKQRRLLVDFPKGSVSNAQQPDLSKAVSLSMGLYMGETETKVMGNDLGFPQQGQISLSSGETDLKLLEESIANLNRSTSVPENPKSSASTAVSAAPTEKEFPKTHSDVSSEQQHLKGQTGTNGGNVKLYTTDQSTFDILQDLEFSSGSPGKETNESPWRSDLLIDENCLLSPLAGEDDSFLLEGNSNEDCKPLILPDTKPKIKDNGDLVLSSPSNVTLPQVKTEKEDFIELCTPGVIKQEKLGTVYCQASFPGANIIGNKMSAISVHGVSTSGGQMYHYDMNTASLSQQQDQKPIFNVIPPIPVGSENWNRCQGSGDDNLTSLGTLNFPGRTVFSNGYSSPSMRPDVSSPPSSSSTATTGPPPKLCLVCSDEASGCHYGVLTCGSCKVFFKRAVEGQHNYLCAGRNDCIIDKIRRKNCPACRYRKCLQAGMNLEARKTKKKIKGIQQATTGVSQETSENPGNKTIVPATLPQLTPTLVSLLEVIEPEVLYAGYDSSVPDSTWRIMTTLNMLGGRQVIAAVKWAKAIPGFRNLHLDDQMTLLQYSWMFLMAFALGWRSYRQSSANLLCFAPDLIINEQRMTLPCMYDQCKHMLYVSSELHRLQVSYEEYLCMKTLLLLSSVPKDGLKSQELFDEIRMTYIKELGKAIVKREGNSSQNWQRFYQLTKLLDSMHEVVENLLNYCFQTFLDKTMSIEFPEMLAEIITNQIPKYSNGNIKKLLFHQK

| SMILES | Ki [nM] |
| --- | --- |
| Cc1cc2c(cnn2-c2ccc(F)cc2)cc1[C@@]12CN(C(=O)C3CCC3)C[C@@H]1[C@H]2c1ccccc1 (stereo in doubt) [Example 120, cyclobutyl(1-(1-(4-fluorophenyl)-6-methyl-1H-indazol-5-yl)-6-phenyl-3-azabicyclo[3.1.0]hexan-3-yl)methanone] | 52 |
| Cc1noc([C@@H]2[C@H]3CN(S(=O)(=O)c4cnn(C)n4)C[C@]32c2cc3cnn(-c4ccc(F)cc4)c3cc2C)n1 (stereo in doubt) [Example 131, 5-(1-(1-(4-fluorophenyl)-6-methyl-1H-indazol-5-yl)-3-((2-methyl-2H-1,2,3-triazol-4-yl)sulfonyl)-3-azabicyclo[3.1.0]hexan-6-yl)-3-methyl-1,2,4-oxadiazole] | 240 |
| Cc1cc2c(cnn2-c2ccc(F)cc2)cc1[C@@]12CN(S(=O)(=O)c3cnn(C)n3)C[C@@H]1[C@H]2Cn1cccn1 (stereo in doubt) [Example 132, 5-(6-((1H-pyrazol-1-yl)methyl)-3-((2-methyl-2H-1,2,3-triazol-4-yl)sulfonyl)-3-azabicyclo[3.1.0]hexan-1-yl)-1-(4-fluorophenyl)-6-methyl-1H-indazole] | 350 |
| COCCOCCS(=O)(=O)N1C[C@@H]2[C@@H](c3ccccc3)[C@]2(c2cc3cnn(-c4ccc(F)cc4)c3cc2C)C1 (stereo in doubt) [Example 138, 1-(4-fluorophenyl)-5-(3-((2-(2-methoxyethoxy)ethyl)sulfonyl)-6-phenyl-3-azabicyclo[3.1.0]hexan-1-yl)-6-methyl-1H-indazole] | 70 |
| Cc1cc2c(cnn2-c2ccc(F)cc2)cc1[C@@]12CN(S(=O)(=O)C3CCC3)C[C@@H]1[C@H]2c1ccccc1 (stereo in doubt) [Example 139, 5-(3-(cyclobutylsulfonyl)-6-phenyl-3-azabicyclo[3.1.0]hexan-1-yl)-1-(4-fluorophenyl)-6-methyl-1H-indazole] | 45 |
| Cc1cc2c(cnn2-c2ccc(F)cc2)cc1[C@@]12CN(C(=O)c3cccc(C(F)(F)F)n3)C[C@@H]1[C@H]2c1ccccc1 (stereo in doubt) [Example 145, (1-(1-(4-fluorophenyl)-6-methyl-1H-indazol-5-yl)-6-phenyl-3-azabicyclo[3.1.0]hexan-3-yl)(6-(trifluoromethyl)pyridin-2-yl)methanone] | 48 |
| Cc1cc2c(cnn2-c2ccc(F)cc2)cc1[C@@]12CN(C(=O)c3ccn(C)n3)C[C@@H]1[C@H]2c1ccccc1 (stereo in doubt) [Example 154, (1-(1-(4-fluorophenyl)-6-methyl-1H-indazol-5-yl)-6-phenyl-3-azabicyclo[3.1.0]hexan-3-yl)(1-methyl-1H-pyrazol-3-yl)methanone] | 16 |
| Cc1cc2c(cnn2-c2ccc(F)cc2)cc1[C@@]12CN(C(=O)c3ncccc3F)C[C@@H]1[C@H]2c1ccccc1 (stereo in doubt) [Example 156, (1-(1-(4-fluorophenyl)-6-methyl-1H-indazol-5-yl)-6-phenyl-3-azabicyclo[3.1.0]hexan-3-yl)(3-fluoropyridin-2-yl)methanone] | 20 |
| Cc1cc2c(cnn2-c2ccc(F)cc2)cc1[C@@]12CN(C(=O)c3ncc(F)cc3F)C[C@@H]1[C@H]2c1ccccc1 (stereo in doubt) [Example 157, (3,5-difluoropyridin-2-yl)(1-(1-(4-fluorophenyl)-6-methyl-1H-indazol-5-yl)-6-phenyl-3-azabicyclo[3.1.0]hexan-3-yl)methanone] | 18 |
| Cc1cc2c(cnn2-c2ccc(F)cc2)cc1[C@@]12CN(C(=O)c3nccs3)C[C@@H]1[C@H]2c1ccccc1 (stereo in doubt) [Example 158, (1-(1-(4-fluorophenyl)-6-methyl-1H-indazol-5-yl)-6-phenyl-3-azabicyclo[3.1.0]hexan-3-yl)(thiazol-2-yl)methanone] | 12 |
| Cc1cc2c(cnn2-c2ccc(F)cc2)cc1[C@@]12CN(C(=O)c3ncccc3C)C[C@@H]1[C@H]2c1ccccc1 (stereo in doubt) [Example 162, (1-(1-(4-fluorophenyl)-6-methyl-1H-indazol-5-yl)-6-phenyl-3-azabicyclo[3.1.0]hexan-3-yl)(3-methylpyridin-2-yl)methanone] | 29 |
| Cc1cc2c(cnn2-c2ccc(F)cc2)cc1[C@@]12CN(C(=O)c3cccc(C#N)n3)C[C@@H]1[C@H]2c1ccccc1 (stereo in doubt) [Example 164, 6-(1-(1-(4-fluorophenyl)-6-methyl-1H-indazol-5-yl)-6-phenyl-3-azabicyclo[3.1.0]hexane-3-carbonyl)picolinonitrile] | 7.2 |
| Cc1cc2c(cnn2-c2ccc(F)cc2)cc1[C@@]12CN(C(=O)c3cccc(C(C)C)n3)C[C@@H]1[C@H]2c1ccccc1 (stereo in doubt) [Example 166, (1-(1-(4-fluorophenyl)-6-methyl-1H-indazol-5-yl)-6-phenyl-3-azabicyclo[3.1.0]hexan-3-yl)(6-isopropylpyridin-2-yl)methanone] | 47 |
| Cc1cc2c(cnn2-c2ccc(F)cc2)cc1[C@@]12CN(C(=O)c3ccc(C(F)(F)F)cn3)C[C@@H]1[C@H]2c1ccccc1 (stereo in doubt) [Example 168, (1-(1-(4-fluorophenyl)-6-methyl-1H-indazol-5-yl)-6-phenyl-3-azabicyclo[3.1.0]hexan-3-yl)(5-(trifluoromethyl)pyridin-2-yl)methanone] | 39 |
| COc1ccnc(C(=O)N2C[C@@H]3[C@@H](c4ccccc4)[C@]3(c3cc4cnn(-c5ccc(F)cc5)c4cc3C)C2)c1 (stereo in doubt) [Example 169, (1-(1-(4-fluorophenyl)-6-methyl-1H-indazol-5-yl)-6-phenyl-3-azabicyclo[3.1.0]hexan-3-yl)(4-methoxypyridin-2-yl)methanone] | 35 |
| Cc1cc2c(cnn2-c2ccc(F)cc2)cc1[C@@]12CN(C(=O)c3ncccn3)C[C@@H]1[C@H]2c1ccccc1 (stereo in doubt) [Example 171, (1-(1-(4-fluorophenyl)-6-methyl-1H-indazol-5-yl)-6-phenyl-3-azabicyclo[3.1.0]hexan-3-yl)(pyrimidin-2-yl)methanone] | 36 |
| Cc1cc2c(cnn2-c2ccc(F)cc2)cc1[C@@]12CN(C(=O)c3ccccc3)C[C@@H]1[C@H]2c1cccnc1 (stereo in doubt) [Example 173, (1-(1-(4-fluorophenyl)-6-methyl-1H-indazol-5-yl)-6-(pyridin-3-yl)-3-azabicyclo[3.1.0]hexan-3-yl)(phenyl)methanone] | 130 |

More lines, now with the values ahead:

| Ki [nM] | SMILES |
| --- | --- |
| 34 | Cc1cc2c(cnn2-c2ccc(F)cc2)cc1[C@@]12CN(C(=O)c3cccc(F)c3)C[C@@H]1[C@H]2c1ccccc1 (stereo in doubt) [Example 117, (3-fluorophenyl)(1-(1-(4-fluorophenyl)-6-methyl-1H-indazol-5-yl)-6-phenyl-3-azabicyclo[3.1.0]hexan-3-yl)methanone] |
| 49 | Cc1cc2c(cnn2-c2ccc(F)cc2)cc1[C@@]12CN(C(=O)N3CCOCC3)C[C@@H]1[C@H]2c1ccccc1 (stereo in doubt) [Example 121, (1-(1-(4-fluorophenyl)-6-methyl-1H-indazol-5-yl)-6-phenyl-3-azabicyclo[3.1.0]hexan-3-yl)(morpholino)methanone] |
| 15 | Cc1cc2c(cnn2-c2ccc(F)cc2)cc1[C@@]12CN(C(=O)c3cccc(N4CCOCC4)c3)C[C@@H]1[C@H]2c1ccccc1 (stereo in doubt) [Example 142, (1-(1-(4-fluorophenyl)-6-methyl-1H-indazol-5-yl)-6-phenyl-3-azabicyclo[3.1.0]hexan-3-yl)(3-morpholinophenyl)methanone] |
| 25 | Cc1cc2c(cnn2-c2ccc(F)cc2)cc1[C@@]12CN(C(=O)c3cccc(C(F)F)c3)C[C@@H]1[C@H]2c1ccccc1 (stereo in doubt) [Example 143, (3-(difluoromethyl)phenyl)(1-(1-(4-fluorophenyl)-6-methyl-1H-indazol-5-yl)-6-phenyl-3-azabicyclo[3.1.0]hexan-3-yl)methanone] |
| 24 | Cc1cc2c(cnn2-c2ccc(F)cc2)cc1[C@@]12CN(C(=O)c3ccccc3S(C)(=O)=O)C[C@@H]1[C@H]2c1ccccc1 (stereo in doubt) [Example 159, (1-(1-(4-fluorophenyl)-6-methyl-1H-indazol-5-yl)-6-phenyl-3-azabicyclo[3.1.0]hexan-3-yl)(2-(methylsulfonyl)phenyl)methanone] |
| 70 | Cc1cc2c(cnn2-c2ccc(F)cc2)cc1[C@@]12CN(C(=O)C3CCOCC3)C[C@@H]1[C@H]2c1ccccc1 (stereo in doubt) [Example 160, (1-(1-(4-fluorophenyl)-6-methyl-1H-indazol-5-yl)-6-phenyl-3-azabicyclo[3.1.0]hexan-3-yl)(tetrahydro-2H-pyran-4-yl)methanone] |
| 61 | Cc1cc2c(cnn2-c2ccc(F)cc2)cc1[C@@]12CN(C(=O)c3ccnn3C)C[C@@H]1[C@H]2c1ccccc1 (stereo in doubt) [Example 161, (1-(1-(4-fluorophenyl)-6-methyl-1H-indazol-5-yl)-6-phenyl-3-azabicyclo[3.1.0]hexan-3-yl)(1-methyl-1H-pyrazol-5-yl)methanone] |
| 39 | Cc1cc2c(cnn2-c2ccc(F)cc2)cc1[C@@]12CN(C(=O)c3ccccc3N3CCOCC3)C[C@@H]1[C@H]2c1ccccc1 (stereo in doubt) [Example 174, (1-(1-(4-fluorophenyl)-6-methyl-1H-indazol-5-yl)-6-phenyl-3-azabicyclo[3.1.0]hexan-3-yl)(2-morpholinophenyl)methanone] |
